Data on 30 molecules can be found in patent publication US6437184B1, “Oxime compounds, their use, and intermediates for their production” (Sumitomo Chemical Company, Limited, priority 1997, dated 2002).

The structures appear in SMILES notation. Like-named read-outs stand apart in the source and are kept apart here.

The subject of one data set is Helicoverpa armigera. Nature of the data set: Insecticidal test against Helicoverpa armigera. The note with it: 120 h, 100 ppm water dilution, cotton leaf fragment immersed 10 seconds, third-instar larvae, after 5 days. It counts as in vivo. Here is the method: A cotton leaf fragment (diameter, 5 cm) was immersed for 10 seconds Lin a water dilution (100 ppm) of a test compound formulation obtained according to Formulation Example 1. This fragment was taken out from the dilution, air dried, and placed in a polyethylene cup having a diameter of 5.5 cm. One third-instar larva of Helicoverpa armigera was set free in each cup. Ten larvae were used for each treatment. After 5 days, the mortality of the larvae was determined.

For the next data set, the system named is Cydia pomonella. Nature of the data set: Insecticidal test against Cydia pomonella. In kind it is in vivo. The following applies: 168 h, 100 ppm water dilution, 0.2 ml on surface of artificial diet, eggs just before hatching, after 7 days. Here is the method: A water dilution (100 ppm) of a test compound formulation obtained according to Formulation Example 1 was added dropwise at a volume of 0.2 ml and spread over the surface of an artificial diet having a weight of 3 g, which had been prepared in a 30 ml polyethylene cup. After air drying, placed in the cup was a piece of wax paper (about 2.5 cm square) having about 20 eggs which had been laid by Cydia pomonella and were just before hatching. Four pieces of such wax paper were used for each treatment. After 7 days, the mortality of the larvae was determined.

For another data set, the system named is Plutella xylostella. Nature of the data set: Insecticidal test against Plutella xylostella. It counts as in vivo. The note with it: 96 h. How it is done:
To a water dilution (50 ppm) of a test compound formulation obtained according to Formulation Example 1 was added a spreading agent (New RINOU available from Nihon Noyaku K.K.) at a dilution ratio of 3000-fold. The dilution was sprayed over potted cabbages at the four to five leaf stage at a volume of 25 ml per pot. After the treated plants were air dried, ten third-instar larvae of Plutella xylostella were set free on each pot. After 4 days, the mortality was determined.

A further data set deals with Musca domestica. Nature of the data set: Insecticidal test against Musca domestica. In kind it is in vivo. The note with it: 24 h. How it is done: In the bottom of a polyethylene cup having a diameter of 5.5 cm was placed a piece of filter paper having the same size. A 200-fold water dilution (500 ppm) of a test compound formulation obtained according to Formulation Example 1 was added dropwise at a volume of 0.7 ml on the filter paper, and about 30 mg of sucrose as a diet was uniformly placed thereon. Ten female adults of houseflies (Musca domestica) were set free in the cup, and the cup was kept covered. After 1 day, the survival of the adults was determined to determine the mortality.

Where [1] appears, read: 50 ppm water dilution sprayed over potted cabbages, 25 ml per pot, third-instar larvae, after 4 days, read-out: mortality.

For `CCON=C(C)c1ccc(OCCCOc2c(Cl)cc(OCC=C(Cl)Cl)cc2Cl)cc1` [(293), 4′-(3-(2,6-dichloro-4-(3,3-dichloro-2-propenyloxy)phenoxy)propyloxy)acetophenone O-ethyloxime], the mortality at 100 µg/mL in the data set with Helicoverpa armigera and in the data set with Cydia pomonella was not below 80% each time.

The molecule `CON=Cc1ccc(COc2c(Cl)cc(OCC=C(Cl)Cl)cc2Cl)cc1` [(311), 4-(2,6-dichloro-4-(3,3-dichloro-2-propenyloxy)phenoxymethyl)benzaldehyde O-methyloxime] returned a melting point of 95.9 °C.

With `ClC(Cl)=CCOc1cc(Cl)c(OCCOc2ccc(C=NOCC=C(Br)Br)cc2)c(Cl)c1` [(282), 4-(2-(2,6-dichloro-4-(3,3-dichloro-2-propenyloxy)phenoxy)-ethoxy)benzaldehyde O-(3,3-dibromo-2-propenyl)oxime], the melting point was found to be 90.8 °C.

In turn, `CCON=Cc1ccc(COc2c(Cl)cc(OCC=C(Cl)Cl)cc2Cl)cc1` [(326), 4-(2,6-dichloro-4-(3,3-dichloro-2-propenyloxy)phenoxymethyl)benzaldehyde O-ethyloxime] returned a melting point of 84.8 °C.

The molecule `N#Cc1ccc(C=NOCCCCOc2c(Cl)cc(OCC=C(Cl)Cl)cc2Cl)cc1` [(691), 4-cyanobenzaldehyde O-(4-(2,6-dichloro-4-(3,3-dichloro-2-propenyloxy)phenoxy)butyl)oxime] gave a melting point of 71.2 °C.

For `CC(=NOCCCCCOc1c(Cl)cc(OCC=C(Cl)Cl)cc1Cl)c1ccc(Cl)nc1` [(569), 6-chloro-3-pyridyl methyl ketone O-(5-(2,6-dichloro-4-(3,3-dichloro-2-propenyloxy)phenoxy)pentyl)oxime], the melting point was 67.7 °C.

For the molecule `CCON=C(C)c1ccc(OCCCCCOc2c(Cl)cc(OCC=C(Cl)Cl)cc2Cl)cc1` [(321), 4′-(5-(2,6-dichloro-4-(3,3-dichloro-2-propenyloxy)phenoxy)-pentyloxy)acetophenone O-ethyloxime], the melting point is 56.1 °C.

`CCON=Cc1ccc(OCCCOc2c(Cl)cc(OCC=C(Cl)Cl)cc2Cl)cc1` [(288), 4-(3-(2,6-dichloro-4-(3,3-dichloro-2-propenyloxy)phenoxy)propyloxy)benzaldehyde O-ethyloxime]: in the data set on Helicoverpa armigera, the mortality at 100 µg/mL was not below 80%.

In turn, `CCC(C)ON=Cc1ccc(CCOc2c(Cl)cc(OCC=C(Cl)Cl)cc2Cl)cc1` (stereo not shown) [(355), 4-(2-(2,6-dichloro-4-(3,3-dichloro-2-propenyloxy)phenoxy)ethyl)benzaldehyde O-sec-butyloxime] showed a mortality at 100 µg/mL in the data set on Helicoverpa armigera not below 80%.

`CC(=NOCCCCOc1c(Cl)cc(OCC=C(Cl)Cl)cc1Cl)C(C)(C)C` [(562), 3,3-dimethyl-2-butanone O-(4-(2,6-dichloro-4-(3,3-dichloro-2-propenyloxy)phenoxy)butyl)oxime] yielded a mortality at 100 µg/mL in the data set with Helicoverpa armigera not below 80%.

With `ClC(Cl)=CCON=Cc1ccc(OCCCOc2c(Cl)cc(OCC=C(Cl)Cl)cc2Cl)cc1` [(283), 4-(3-(2,6-dichloro-4-(3,3-dichloro-2-propenyloxy)phenoxy)propyloxy)benzaldehyde O-(3,3-dichloro-2-propenyl)oxime], in the data set on Plutella xylostella (setting [1]), the mortality at 50 µg/mL was not below 80%. Moreover, in the data set on Helicoverpa armigera, the mortality at 100 µg/mL was not below 80%.

For the molecule `C=CCON=Cc1ccc(CCOc2c(Cl)cc(OCC=C(Cl)Cl)cc2Cl)cc1` [(357), 4-(2-(2,6-dichloro-4-(3,3-dichloro-2-propenyloxy)phenoxy)ethyl)benzaldehyde O-allyloxime], the mortality at 100 µg/mL in the data set on Helicoverpa armigera was not below 80%.

For the molecule `O=[N+]([O-])c1ccc(ON=CCCCCOc2c(Cl)cc(OCC=C(Cl)Cl)cc2Cl)c([N+](=O)[O-])c1`, the melting point was 65.2 °C.

`CC(C)(C)C=NOCCCCCOc1c(Cl)cc(OCC=C(Cl)Cl)cc1Cl` [(545), trimethylacetaldehyde O-(5-(2,6-dichloro-4-(3,3-dichloro-2-propenyloxy)phenoxy)pentyl)oxime] registered a mortality at 100 µg/mL in the data set with Helicoverpa armigera not below 80%. Besides, in the data set on Musca domestica (500 ppm water dilution, 0.7 ml on filter paper with sucrose, female adults, after 1 day, read-out: mortality), the mortality at 500 µg/mL was not below 80%.

For `ClC(Cl)=CCON=Cc1ccc(CCOc2c(Cl)cc(OCC=C(Cl)Cl)cc2Cl)cc1` [(358), 4-(2-(2,6-dichloro-4-(3,3-dichloro-2-propenyloxy)phenoxy)ethyl)benzaldehyde O-(3,3-dichloro-2-propenyl)oxime], the mortality at 100 µg/mL in the data set on Helicoverpa armigera was not below 80%.

As for `CC(CC(C)C)=NOCCCCCOc1c(Cl)cc(OCC=C(Cl)Cl)cc1Cl` [(564), 4-methyl-2-pentanone O-(5-(2,6-dichloro-4-(3,3-dichloro-2-propenyloxy)phenoxy)pentyl)oxime], the mortality at 100 µg/mL in the data set on Helicoverpa armigera is not below 80%.

With `CC(C)(C)ON=CCOCCCCCOc1c(Cl)cc(OCC=C(Cl)Cl)cc1Cl` [(14), 5-(2,6-dichloro-4-(3,3-dichloro-2-propenyloxy)phenoxy)pentyloxyacetaldehyde O-tert-butyloxime], in the data set on Helicoverpa armigera, the mortality at 100 µg/mL was not below 80%.

The molecule `C=CCON=Cc1ccc(COc2c(Cl)cc(OCC=C(Cl)Cl)cc2Cl)cc1` [(312), 4-(2,6-dichloro-4-(3,3-dichloro-2-propenyloxy)phenoxymethyl)benzaldehyde O-(2-propenyl)oxime] had a mortality at 100 µg/mL in the data set on Helicoverpa armigera not below 80%.

On to `C=CCON=Cc1ccc(OCCCOc2c(Cl)cc(OCC=C(Cl)Cl)cc2Cl)cc1` [(342), 4-(3-(2,6-dichloro-4-(3,3-dichloro-2-propenyloxy)phenoxy)propyloxy)benzaldehyde O-allyloxime], for which the mortality at 100 µg/mL in the data set on Helicoverpa armigera is not below 80%.

`CC(C)(C)ON=Cc1ccc(OCCCOc2c(Cl)cc(OCC=C(Cl)Cl)cc2Cl)cc1` [(291), 4-(3-(2,6-dichloro-4-(3,3-dichloro-2-propenyloxy)phenoxy)propyloxy)benzaldehyde O-t-butyloxime] came in with a mortality at 100 µg/mL in the data set on Helicoverpa armigera not below 80%.

For `ClC(Cl)=CCOc1cc(Cl)c(OCCCCCON=C2CCOCC2)c(Cl)c1` [(574), tetrahydro-4H-pyran-4-one O-(5-(2,6-dichloro-4-(3,3-dichloro-2-propenyloxy)phenoxy)pentyl)oxime], the mortality at 50 µg/mL in the data set on Plutella xylostella (setting [1]) was not below 80%. Also, in the data set on Cydia pomonella, the mortality at 100 µg/mL was not below 80%.

On to `ClC(Cl)=CCON=Cc1ccc(COc2c(Cl)cc(OCC=C(Cl)Cl)cc2Cl)cc1` [(279), 4-(2,6-dichloro-4-(3,3-dichloro-2-propenyloxy)phenoxymethyl)benzaldehyde O-(3,3-dichloro-2-propenyl)oxime], for which the mortality at 50 µg/mL with Plutella xylostella (setting [1]) is not below 80%. Further, the mortality at 100 µg/mL in the data set with Helicoverpa armigera and with Cydia pomonella was not below 80% each time.

With `C=CCON=Cc1ccc(CCCOc2c(Cl)cc(OCC=C(Cl)Cl)cc2Cl)cc1` [(370), 4-(3-(2,6-dichloro-4-(3,3-dichloro-2-propenyloxy)phenoxy)propyl)benzaldehyde O-allyl oxime], in the data set with Plutella xylostella (setting [1]), the mortality at 50 µg/mL is not below 80%.

In the data set on Helicoverpa armigera, `FC(F)(F)c1ccc(C=NOCCCCOc2c(Cl)cc(OCC=C(Cl)Cl)cc2Cl)cc1` [(529), 4-(trifluoromethyl)benzaldehyde O-(4-(2,6-dichloro-4-(3,3-dichloro-2-propenyloxy)phenoxy)butyl)oxime] yielded a mortality at 100 µg/mL not below 80%.

In the data set with Plutella xylostella, `CC(COCCCCCOc1c(Cl)cc(OCC=C(Cl)Cl)cc1Cl)=NOC(=O)NC(C)(C)C` [(180), 5-(2,6-dichloro-4-(3,3-dichloro-2-propenyloxy)phenoxy)pentyloxyacetone O-(N-tert-butylcarbamoyl)oxime] showed a mortality at 50 µg/mL not below 80%. In the data set with Musca domestica, the mortality at 500 µg/mL is not below 80%.

With `ClC(Cl)=CCON=Cc1ccc(OCCOc2c(Cl)cc(OCC=C(Cl)Cl)cc2Cl)cc1` [(281), 4-(2-(2,6-dichloro-4-(3,3-dichloro-2-propenyloxy)phenoxy)-ethoxy)benzaldehyde O-(3,3-dichloro-2-propenyl)oxime], the mortality at 50 µg/mL in the data set on Plutella xylostella (setting [1]) was not below 80%.

With `ClC(Cl)=CCON=CCCCCOc1c(Cl)cc(OCC=C(Cl)Cl)cc1Cl` [(17), 5-(2,6-dichloro-4-(3,3-dichloro-2-propenyloxy)phenoxy)pentanal O-(3,3-dichloro-2-propenyl)oxime], the mortality at 100 µg/mL in the data set on Helicoverpa armigera was not below 80%.

As to `CCC(C)ON=Cc1ccc(COc2c(Cl)cc(OCC=C(Cl)Cl)cc2Cl)cc1` (stereo not shown) [(329), 4-(2,6-dichloro-4-(3,3-dichloro-2-propenyloxy)phenoxy)methylbenzaldehyde O-sec-butyloxime], the mortality at 100 µg/mL with Helicoverpa armigera was not below 80%.

For `ClC(Cl)=CCON=CCCOc1c(Cl)cc(OCC=C(Cl)Cl)cc1Cl` [(75), 3-(2,6-dichloro-4-(3,3-dichloro-2-propenyloxy)phenoxy)propionaldehyde O-(3,3-dichloro-2-propenyl)oxime], the mortality at 50 µg/mL with Plutella xylostella (setting [1]) is not below 80%.

In the data set on Helicoverpa armigera, `CC(=NOCCCCOc1c(Cl)cc(OCC=C(Cl)Cl)cc1Cl)c1ccc(C(F)(F)F)cc1` [(531), 4′-(trifluoromethyl)acetophenone O-(4-(2,6-dichloro-4-(3,3-dichloro-2-propenyloxy)phenoxy)butyl)oxime] showed a mortality at 100 µg/mL not below 80%.
